According to patent publication US9073874B2, “Cyclic N,N′-diarylthioureas and N,N′-diarylureas-androgen receptor antagonists, anticancer agent, method for preparation and use thereof” (priority 2010, dated 2015):
“Also recorded” adds a separate entry of the source.

What was measured:
[1] = Distribution in plasma, brain and prostate after single IV administration in rats; assay type: in vivo; details: for concentration at 30 min / concentration at 120 min: rat, plasma; for concentration at 30 min / concentration at 120 min / Brain / Plasma / Prostate: Mean ± SD, n = 3
CYP 3A = CYP 3A induction assay; assay type: in vitro ADME
LnCAP-Z2 tumors = test: Prostate cancer xenograft model, SCID male mice bearing LnCAP-Z2 tumors; assay type: in vivo; details: analysis of individual tumors, 21 days oral
Experimental: SCID male mice bearing LnCAP-Z2 tumors (mean volume˜160-190 mm^3) were treated daily by oral gavage with vehicle or drugs for 21 days. Individual tumor volume change by the end of the study. Percentage of change in individual tumor volumes as compared to the start of treatment.
FIG. 6. […] SCID male mice bearing LnCAP-Z2 tumors (mean volume˜160-190 mm^3) treated daily by oral gavage with vehicle or drugs for 21 days. Individual tumor volume change by the end of the study. Percentage of change in individual tumor volumes compared to the start of treatment.
FIG. 7. […] SCID male mice bearing LnCAP-Z2 tumors (mean volume˜160-190 mm^3) treated daily by oral gavage with vehicle or drugs for 21 days. (A)—Tumor weight by the end of the study. Mean±SEM are presented. […] (B)—PSA expression by the end of the study. Plasma samples were collected 24 hours after the last drug administration. Mean±SEM are presented.
The antitumor efficacy of (R)-1 was tested in a xenograft model of prostate cancer (FIGS. 6 and 7). Male immunodeficient mice harboring LnCAP-Z2 tumors were treated orally for 21 days with either vehicle or (R)-1 at 20 and 50 mg/kg once daily and at 20 mg/kg twice daily. […] Twenty-four hours after last treatment, blood samples were collected from all animals and used for measuring PSA expression and drug concentration. In addition, the concentration of drugs and Ki67 expression were measured in tumor samples.

[2] = Maximum tolerated dose, peroral once a day for 5 days in CD1 male mice; assay type: in vivo
Experimental: The maximum tolerated doses (MTD) of novel antagonists (R)-1 and their analog Ia were determined in experiments on CD1 male mice at peroral administration once a day for 5 days in doses of 10, 30, and 100 mg/kg. The compound was dissolved in sterile water with addition of Tween 80. Sterile water with Tween 80 was given to control animals (Placebo group). Animals' body weight and mortality rate were estimated. Statistical comparison of groups was carried out according to a non-parametric ANOVA test using Statistica software.

androgen receptors = target: T1, androgen receptors (Homo sapiens, UniProt P10275, T878A); test: cell-based; assay type: cell-based
T1 construct: host or cells: LNCaP
T1 sequence (P10275 1-920 T878A): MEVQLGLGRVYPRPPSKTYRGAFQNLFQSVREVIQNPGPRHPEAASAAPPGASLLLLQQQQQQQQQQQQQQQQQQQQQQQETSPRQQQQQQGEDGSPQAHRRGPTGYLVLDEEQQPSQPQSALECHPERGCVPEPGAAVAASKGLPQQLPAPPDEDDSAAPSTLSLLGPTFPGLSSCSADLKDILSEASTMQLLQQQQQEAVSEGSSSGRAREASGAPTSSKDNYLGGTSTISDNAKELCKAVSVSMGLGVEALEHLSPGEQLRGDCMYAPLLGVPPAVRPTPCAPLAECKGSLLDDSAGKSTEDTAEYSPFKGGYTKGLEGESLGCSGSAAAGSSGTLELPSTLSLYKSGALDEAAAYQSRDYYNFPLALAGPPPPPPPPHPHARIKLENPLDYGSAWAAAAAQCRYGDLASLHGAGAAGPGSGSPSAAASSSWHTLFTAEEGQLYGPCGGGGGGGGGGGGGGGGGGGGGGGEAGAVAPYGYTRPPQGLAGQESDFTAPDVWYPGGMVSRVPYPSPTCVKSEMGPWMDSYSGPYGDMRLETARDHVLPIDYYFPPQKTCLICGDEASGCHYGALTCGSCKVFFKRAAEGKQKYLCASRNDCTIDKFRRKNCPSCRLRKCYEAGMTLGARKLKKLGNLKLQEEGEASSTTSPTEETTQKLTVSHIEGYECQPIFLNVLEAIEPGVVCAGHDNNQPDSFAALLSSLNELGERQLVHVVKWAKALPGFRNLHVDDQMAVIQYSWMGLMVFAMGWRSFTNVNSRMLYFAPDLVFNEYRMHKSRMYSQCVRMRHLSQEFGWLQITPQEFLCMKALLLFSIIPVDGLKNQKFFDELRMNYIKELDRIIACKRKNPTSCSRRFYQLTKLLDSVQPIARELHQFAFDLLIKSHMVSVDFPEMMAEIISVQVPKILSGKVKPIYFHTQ
Experimental: The expression of PSA was measured in the culture medium 24 hours thereafter (FIG. 1). […] The LnCAP cells were cultured for a further 5 days and the number of viable cells was then calculated.
FIG. 1. Inhibition of DHT-stimulated PSA expression in LnCAP cells.
These cells are sensitive towards 5-a-dihydrotestosterone (DHT) and in the presence thereof produce cancer markers (PSA). […] Before the experiment, the cells were washed and suspended in the same medium, in which, however, a serum treated with charcoal for removal of hormone traces was used instead of calf serum. The cells (10 000 in total) were embedded into the wells of 96-well plates at 100 μl per well and left for 4 days in an incubator at 37° C. […] The cells were incubated for a further 5 days under the same conditions. Then, samples of the supracellular medium were taken and analyzed for PSA. The test was carried out according to the protocol recommended by the manufacturer of the kit for PSA measurement (Alpha Diagnostic International, USA). After wetting the wells containing PSA antibodies attached to their bottoms, 25 μl of test compounds and 100 μl of PSA antibodies pre-conjugated to horseradish peroxidase were added successively to each well. Following a 30-minute incubation at room temperature, the content of each well was removed, the wells were washed several times, and 100 μl of a peroxidase chromogenic substrate was then added to each well. […] Based on data about the dependence of DHT-related reduction of PSA synthesis on the concentration of test compounds, dose-response curves were plotted to determine IC50 values. Said values were used for calculating apparent inhibition constants (Ki) for compounds of general formula I according to Cheng-Prusoff equation. [Cheng, Y., Prusoff, W. H. “Relationship between the inhibition constant (Ki) and the concentration of inhibitor which causes 50 percent inhibition (IC50) of an enzymatic reaction”. Biochem Pharmacol.

[3] = CD1 male mice, peroral, 100 mg/kg

CNC(=O)c1ccc(N2C(=S)N(c3ccc(C#N)c(C(F)(F)F)c3)C(=O)C2(C)C)cc1F [Ia, MDV3100]
concentration at 30 min ([1]; single IV 2 mg/kg, 30 min): 263 ± 19 ng/mL
concentration at 120 min ([1]; single IV 2 mg/kg, 120 min): 377 ± 153 ng/mL
Brain ([1]; single IV 2 mg/kg, 30 min): 164 ± 19 ng/g
Plasma ([1]; single IV 2 mg/kg, 30 min): 263 ± 19 ng/mL
Prostate ([1]; single IV 2 mg/kg, 30 min): 102 ± 4 ng/g
Brain ([1]; single IV 2 mg/kg, 120 min): 152 ± 31 ng/g
Plasma ([1]; single IV 2 mg/kg, 120 min): 377 ± 153 ng/mL
Prostate ([1]; single IV 2 mg/kg, 120 min): 124 ± 27 ng/g
Positive control, % (CYP 3A induction) (CYP 3A; Concentration 1 μM): 10.0 ± 2.0%
Positive control, % (CYP 3A induction) (CYP 3A; Concentration 10 μM): 73.3 ± 6.8%
effect on individual tumors (in words) (LnCAP-Z2 tumors): stimulate tumor regression
MTD at 5 days ([2]; CD1, mouse, in vivo, oral, male CD-1 mice, peroral once a day for 5 days): ~30 mg/kg
p, body weight versus Placebo group ([2]; CD1 male mice, 100 mg/kg, 5th day): 0.002
body weight versus control animals (Placebo group) [2, 3]: statistically differed
mortality [2, 3]: One animal died
mortality ([2]; CD1 male mice, peroral, doses below 100 mg/kg (10 and 30 mg/kg)): did not lead to death; also recorded: did not cause death
maximum tolerated dose (MTD) ([2]; male CD-1 mice, peroral once a day for 5 days): about 30 mg/kg

CNC(=O)c1ccc(N2C(=S)N(c3ccc(C#N)c(C(F)(F)F)c3)C(=O)C23CCOC3)cc1F (racemic) [compound 1, 4-[3-(4-Cyano-3-trifluoromethyl-phenyl)-4-oxo-2-thioxo-7-oxa-1,3-diaza-spiro[4.4]non-1-yl]-2-fluoro-N-methyl-benzamide]
AR antagonistic activity (in words) (androgen receptors): comparable with that of Ia

CNC(=O)c1ccc(N2C(=S)N(c3ccc(C#N)c(C(F)(F)F)c3)C(=O)[C@@]23CCOC3)cc1F [(S)-1]
Ki (androgen receptors): 215 nM

CNC(=O)c1ccc(N2C(=S)N(c3cnc(C#N)c(C(F)(F)F)c3)C(=O)C23CCC3)cc1F [III]
concentration at 30 min ([1]; single IV 1 mg/kg, 30 min): 251 ± 29 ng/mL
concentration at 120 min ([1]; single IV 1 mg/kg, 120 min): 153 ± 10 ng/mL
Brain/Plasma ([1]; single IV 1 mg/kg, 30 min): 0.96 ± 0.03
Prostate/Plasma ([1]; single IV 1 mg/kg, 30 min): 1.94 ± 0.24
Brain ([1]; single IV 1 mg/kg, 30 min): 241 ± 21 ng/g
Plasma ([1]; single IV 1 mg/kg, 30 min): 251 ± 29 ng/mL
Prostate ([1]; single IV 1 mg/kg, 30 min): 487 ± 73 ng/g
Brain/Plasma ([1]; single IV 1 mg/kg, 120 min): 1.15 ± 0.27
Prostate/Plasma ([1]; single IV 1 mg/kg, 120 min): 3.15 ± 0.94
Brain ([1]; single IV 1 mg/kg, 120 min): 176 ± 31 ng/g
Plasma ([1]; single IV 1 mg/kg, 120 min): 153 ± 10 ng/mL
Prostate ([1]; single IV 1 mg/kg, 120 min): 482 ± 120 ng/g
Positive control, % (CYP 3A induction) (CYP 3A; Concentration 1 μM): 16.3 ± 2.5%
Positive control, % (CYP 3A induction) (CYP 3A; Concentration 10 μM): 102.7 ± 13.0%
